Data taken from US20240336900A1, “METHODS AND COMPOSITIONS RELATED TO MODIFIED METHYLTRANSFERASES AND ENGINEERED BIOSENSORS” (BOARD OF REGENTS, THE UNIVERSITY OF TEXAS SYSTEM, priority 2023, published 2024).

Tests used:
RamR = target: T1, RamR (Salmonella typhimurium, UniProt Q8ZR43); experiment: Biosensor response assay, wild-type RamR with Pramr-GFP reporter; format: cell-based; settings: pReg-RamR + Pramr-GFP, upon induction
T1 construct: expressed in transfected cells; host or cells: E. coli DH10B
T1 sequence (Q8ZR43 2-193, added parts left off): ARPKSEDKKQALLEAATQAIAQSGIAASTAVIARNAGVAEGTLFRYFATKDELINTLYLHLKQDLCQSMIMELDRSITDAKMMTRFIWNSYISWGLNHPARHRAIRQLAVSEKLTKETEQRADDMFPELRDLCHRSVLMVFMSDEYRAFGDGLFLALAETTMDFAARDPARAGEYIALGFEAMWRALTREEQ
Description: The wild-type RamR sensor was constitutively expressed on one plasmid (pReg-RamR) in parallel with another plasmid bearing the regulator's cognate promoter upstream of the sfGFP gene (Pramr-GFP). […] To better understand this promiscuous binding activity, norbelladine was docked within the ligand binding pocket of RamR using GNINA 1.0 […], and a conformational pose was identified whereby the phenol moiety of norbelladine forms hydrogen bonds with S137 and T85, while the catechol moiety forms a hydrogen bond with K63.
The pReg-RamR and Pramr-GFP plasmids were co-transformed into DH10B cells, which were then plated on LB agar plates containing appropriate antibiotics. Three separate colonies were picked for each transformation and were grown overnight. The following day, 20 μL of each culture was then used to inoculate six separate wells in a 2-mL 96-deep-well plate (Corning, P-DW-20-C-S) sealed with an AeraSeal film (Excel Scientific) containing 900 μL LB medium, one for each test ligand and a solvent control. […] One hundred microliters of the cell resuspension for each condition was transferred to a 96-well microtiter plate (Corning, 3904), from which the fluorescence (excitation, 485 nm; emission, 509 nm) and absorbance (600 nm) were measured using the Tecan Infinite M1000 plate reader.

4NB2.1 biosensor = target: T2, 4NB2.1 biosensor (Salmonella typhimurium, UniProt Q8ZR43, C134D/K63T/L66M/S137G); experiment: Dose response of the evolved 4NB2.1 biosensor to 4NB (fluorescence, RFU/OD); format: cell-based, Escherichia coli
T2 construct: expressed in transfected cells; host or cells: E. coli DH10B
T2 sequence (Q8ZR43 other isoform, or with tags, fused parts or gaps K63T/L66M/C134D/S137G): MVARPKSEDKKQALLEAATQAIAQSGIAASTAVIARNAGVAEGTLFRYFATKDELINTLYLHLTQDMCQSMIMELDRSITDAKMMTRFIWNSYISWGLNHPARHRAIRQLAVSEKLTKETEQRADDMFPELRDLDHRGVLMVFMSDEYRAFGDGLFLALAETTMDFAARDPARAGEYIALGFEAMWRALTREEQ
Description: For sensor variant validation, the subcloned pReg-RamR vectors expressing the sensor variants were transformed into DH10B cells expressing Pramr-GFP. These cultures were then assayed, as described in Biosensor response assay, using eight different concentrations of the 4NB.
Glycerol stocks (20% glycerol) of strains containing the plasmids of interest were inoculated into 1 ml LB medium and grown overnight at 37° C. Twenty microliters of overnight culture was seeded into 900 μl LB medium containing ampicillin and chloramphenicol in a 2-ml 96-deep-well plate sealed with an AeraSeal film. Following growth at 37° C. and 250 r.p.m. for 2 h, cultures were induced with 100 μl of an LB medium solution containing appropriate antibiotics and the inducer molecule dissolved in 10 μl DMSO. Cultures were grown for an additional 4 h at 37° C. and 250 r.p.m. and subsequently centrifuged (3,500 g, 4° C., 10 min). Supernatant was removed, and cell pellets were resuspended in 1 ml PBS. The cell resuspension (100 μl) for each condition was transferred to a 96-well microtiter plate, from which the fluorescence (excitation, 485 nm; emission, 509 nm) and absorbance (600 nm) were measured using the Tecan Infinite M1000 plate reader.
Bar graphs, fluorescence and growth curves, dose-response functions were all plotted in Python 3.6.9 using Matplotlib. Dose-response curves and EC50 values were estimated by fitting to the Hill equation y=d+(a−d)xb(cb+xb)−1 (where y=output signal, b=Hill coefficient, x=ligand concentration, d=background signal, a=maximum signal and c=EC50), with the scipy.optimize.curve_fit library in Python.

Oc1ccc(CCNCc2ccc(O)c(O)c2)cc1 [norbelladine] showed an increase in fluorescence (RamR) of 4.4 fold.
In the case of COc1ccc(CNCCc2ccc(O)cc2)cc1O [4NB, 4-O'Methylnorbelladine], the 4NB2.1 biosensor measurement (4NB2.1 biosensor; 1 uM 4NB supplemented into media) is reported as 200.81 RFU/OD, the 4NB2.1 biosensor measurement (4NB2.1 biosensor; 2.5 uM 4NB supplemented into media) is reported as 240.62 RFU/OD and the 4NB2.1 biosensor measurement (4NB2.1 biosensor; 5 uM 4NB supplemented into media) is reported as 395.69 RFU/OD. For the same molecule, the 4NB2.1 biosensor measurement (4NB2.1 biosensor; 10 uM 4NB supplemented into media) was 944.28 RFU/OD, the 4NB2.1 biosensor measurement (4NB2.1 biosensor; 25 uM 4NB supplemented into media) was 5648.44 RFU/OD and the 4NB2.1 biosensor measurement (4NB2.1 biosensor; 50 uM 4NB supplemented into media) was 21194.72 RFU/OD. The 4NB2.1 biosensor measurement (4NB2.1 biosensor; 100 uM 4NB supplemented into media) was 43800.94 RFU/OD, the 4NB2.1 biosensor measurement (4NB2.1 biosensor; 250 uM 4NB supplemented into media) was 64506.12 RFU/OD and the 4NB2.1 biosensor measurement (4NB2.1 biosensor; 500 uM 4NB supplemented into media) was 67029.6 RFU/OD. The 4NB2.1 biosensor measurement (4NB2.1 biosensor; 1000 uM 4NB supplemented into media) was 62040.21 RFU/OD, the EC50 (4NB2.1 biosensor; biosensor developed by directed evolution) was 20 µM and the increase in fluorescence (RamR) was 3.8 fold.
